In data set [1] the test system is hippocampal LTP (CA1). Put plainly: Hippocampal LTP in slices from 8 month old TgCRND8 mice. On the set-up: species or system mouse. The note with it: n = 6 recordings. The method, then: We examined whether the peptide fragments were capable of influencing Aβ- or hAmylin-induced reduction of hippocampal LTP in mice. Exposure of hippocampal slices from wild-type mice to hAmylin (50 nM) or Aβ (50 nM) depressed LTP induced by a weak tetanization protocol at the CA1 region as previously reported[20],[30]. To determine whether peptides affected hAmylin or Aβ- induced depression of LTP, we applied 250 nM R5 or R14 continuously for 5 min prior to exposure of the hippocampal slices to 50 nM hAmylin or Aβ and the subsequent LTP induction. […] We therefore sought to determine whether peptide fragments were also capable of improving LTP levels in the same TgCRND8 AD mouse model. […] Importantly, doses of the short peptide fragments used in these experiments were equimolar to those used for AC253 and pramlintide in our previous studies[20],[30].
For electrophysiology experiment, hippocampal slices (400-μm thick) were prepared using a vibratome from wild type and TgCRND8 mice (8 month of age, male or female). […]
Brains were quickly removed from mice following decapitation, placed in a cold artificial cerebral spinal fluid (aCSF) on a vibratome chamber, and transverse sections cut through the hippocampus. […] Before 3-TBS or drug application, the responses were monitored for at least 10 min to ensure a stable baseline of fEPSP. […]

A short description of data set [2]: In vitro proteolytic stability in human serum. The class given is in vitro ADME. The note with it: 37°C, intact peptide at different time points estimated by RP-HPLC. On the procedure:
Subsequently, we investigated the proteolytic stability of R5, and R14 compared to AC253. […] By assessing the main degradation fragments for both peptides using MALDI-TOF, we found both peptides to be cleaved at the basic arginine amino acids.
Supplementary Figure S2: The comparison of bio-distribution for the fragments and their parent peptide. (A) Ex vivo fluorescence showing bio-distribution images for Cy5.5-R5, R14, AC253 in different organs at after a 2 h of a single ip injection of the peptides (0.1 mmol in 200µl saline). (B) Quantification of peptides fluorescence in each organ (n=3). (C) In vitro stability of R5, R14, and AC253 peptides in human serum compared with AC253 at 37°C. The amount of intact peptide in human serum at different time points was estimated using RP-HPLC.

A short description of data set [3]: Ex vivo NIR fluorescence brain imaging after ip injection (brain penetration). The conditions noted are these: wild-type mice, 0, 0.6, 2, 10, 20 mg/kg single ip dose, 2 h, n = 3 per dose. The class given is in vivo, mouse. The text has this: Blood brain barrier (BBB) penetration can limit the potential of long sequence peptides as therapeutic agents in central nervous system (CNS). Previously, we have reported that a cyclized form of AC253 peptide and to a lesser degree its linear form can both penetrate the BBB at therapeutically relevant levels, and are localized to the hippocampus and cortex, regions relevant to memory and learning processes. Therefore, we examined the ability of Cy5.5 labeled peptide fragments (R5, and R14) to penetrate BBB in wild-type mice using NIR fluorescence ex vivo brain imaging. Brain fluorescence resulting from either R5 or R14 was assessed against full length AC253 2 h after a single intraperitoneal (ip) injection of peptides. […] Fluorescence signals were distributed throughout the cortex, but particularly strong within the hippocampal regions, where a very high density of amylin receptor expression has been reported. […]
In vivo brain penetration and pharmacokinetics of the peptides were determined in 6-month-old male or female wild-type (C57BL/6 background) and heterozygous CTR mice (het-CTR). […]
For ex vivo imaging experiments and peptide brain uptake, we used age matched 6-month-old wild-type littermate (C57BL/6 background) mice. […] Region of interest was drawn around the brain region and analyzed using the Kodak ID 3.6 software and the mean fluorescence intensity was recorded. […]

No end group written: not given here.

For SQELHRLQTYPR-NH2 [R5], in data set [1], the “effect on chronically depressed LTP in TgCRND8 slices” value is “significant increase in LTP”. For the same substance, the half-life in data set [2] was 60 min. Also, the “accumulation in the brain at increasing dose” value in data set [3] is given as “dose-dependent”.

Values taken from paper PMC6662706, “Short amylin receptor antagonist peptides improve memory deficits in Alzheimer’s disease mouse model” (Scientific Reports, 2019).
